Structures are written as SMILES. pIC50: −log10 of the molar value. Several values for one entry are separate records, joined by “and”; a condition that tells them apart may be missing. Equal values may be shown once. Some results are limits rather than exact numbers.

The experiment deals with A498 complex spheroid viability. Kind of experiment: Anticancer human tumor A498 cell line growth inhibition.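 On all read-outs here: spheroids exposed to agents for seven days before readout.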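 On viability, T/C: 100% = DMSO vehicle-treated spheroids.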 To be noted: for viability, T/C: stronger effect = lower value. Put shortly: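 Complex spheroids of tumor cells with HUVEC and human MSCs, exposed to iadademstat combined with other agents. Each agent tested in half-log steps from near clinical Cmax (else 10 microM top), DMSO ≤0.25%.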

[1] abbreviates: curve of first compound, second compound 0.1 µM.
Where [2] appears, read: curve of first compound, second compound 0.316 µM.
The mark [3] stands for this setting: curve of first compound, second compound 1 µM.
Setting [4] is: curve of first compound, second compound 3.16 µM.
[5] abbreviates: curve of first compound, second compound 10 µM.
[6] abbreviates: second compound 0.1 µM, first compound 0.00316 µM.
The mark [7] stands for this setting: second compound 0.1 µM, first compound 0.01 µM.
[8] abbreviates: second compound 0.1 µM, first compound 0.0316 µM.
Setting [9] is: second compound 0.1 µM, first compound 0.1 µM.
Where [10] appears, read: second compound 0.316 µM, first compound 0.00316 µM.
The mark [11] stands for this setting: second compound 0.316 µM, first compound 0.01 µM.
Setting [12] is: second compound 0.316 µM, first compound 0.0316 µM.
[13] abbreviates: second compound 0.316 µM, first compound 0.1 µM.
The mark [14] stands for this setting: second compound 1 µM, first compound 0.00316 µM.
Setting [15] is: second compound 1 µM, first compound 0.01 µM.
The mark [16] stands for this setting: second compound 1 µM, first compound 0.0316 µM.
Where [17] appears, read: second compound 1 µM, first compound 0.1 µM.
Setting [18] is: second compound 3.16 µM, first compound 0.00316 µM.
Where [19] appears, read: second compound 3.16 µM, first compound 0.01 µM.
Where [20] appears, read: second compound 3.16 µM, first compound 0.0316 µM.
The mark [21] stands for this setting: second compound 3.16 µM, first compound 0.1 µM.
Where [22] appears, read: second compound 10 µM, first compound 0.00316 µM.
Where [23] appears, read: second compound 10 µM, first compound 0.01 µM.
Setting [24] is: second compound 10 µM, first compound 0.0316 µM.
Setting [25] is: second compound 10 µM, first compound 0.1 µM.

`Nc1ncn(C2CC(O)C(CO)O2)c(=O)n1` (stereo unspecified) + NC1CC1c1ccc(-c2cccc(O)c2)cc1: the negative-log IC50 (pIC50) (usually −log10 of the IC50, conventionally taken in molar units) by setting is: under setting [1], < 6.00; under setting [2], < 6.00; under setting [3], < 6.00; under setting [4], < 6.00; under setting [5], < 6.00. In addition, the viability, T/C (in general, the ratio of treated to control) is 110% under setting [6]; 113% under setting [7]; 104% under setting [8]; 94.5% under setting [9]; 92.3% (second compound 0.1 µM, first compound 0.316 µM); 78.6% (second compound 0.1 µM, first compound 1 µM). In addition, the viability, T/C under setting [10] was 118%; the viability, T/C under setting [11] was 120%; the viability, T/C under setting [12] was 107%; the viability, T/C under setting [13] is 97.1%; the viability, T/C (second compound 0.316 µM, first compound 0.316 µM) was 93.1%; the viability, T/C (second compound 0.316 µM, first compound 1 µM) was 68.5%. Also, the viability, T/C is 113% under setting [14]; 114% under setting [15]; 110% under setting [16]; 95.7% under setting [17]; 86.1% (second compound 1 µM, first compound 0.316 µM); 67.3% (second compound 1 µM, first compound 1 µM). Also, the viability, T/C by setting is: under setting [18], 112%; under setting [19], 114%; under setting [20], 110%; under setting [21], 95.4%; (second compound 3.16 µM, first compound 0.316 µM) 75.6%; (second compound 3.16 µM, first compound 1 µM) 63.2%. In addition, the viability, T/C is, setting by setting: under setting [22], 107%; under setting [23], 100%; under setting [24], 105%; under setting [25], 101%; (second compound 10 µM, first compound 0.316 µM) 80.2%; (second compound 10 µM, first compound 1 µM) 60.4%.
As for `Cn1ncnc1C1c2n[nH]c(=O)c3cc(F)cc(c23)NC1c1ccc(F)cc1` (stereo unspecified) + NC1CC1c1ccc(-c2cccc(O)c2)cc1, the pIC50 is < 7.00 under setting [1]; < 7.00 under setting [2]; < 7.00 under setting [3]; < 7.00 under setting [4]; < 7.00 under setting [5]. Also, the viability, T/C reads like this: (second compound 0.1 µM, first compound 0.000316 µM) 94.6%; (second compound 0.1 µM, first compound 0.001 µM) 97.7%; under setting [6], 104%; under setting [7], 94.9%; under setting [8], 96.2%; under setting [9], 94.2%. Moreover, the viability, T/C reads like this: (second compound 0.316 µM, first compound 0.000316 µM) 103%; (second compound 0.316 µM, first compound 0.001 µM) 111%; under setting [10], 104%; under setting [11], 92.1%; under setting [12], 100%; under setting [13], 93.3%. The viability, T/C reads like this: (second compound 1 µM, first compound 0.000316 µM) 89.3%; (second compound 1 µM, first compound 0.001 µM) 93.3%; under setting [14], 96.4%; under setting [15], 84.6%; under setting [16], 89.1%; under setting [17], 87.8%. The viability, T/C reads like this: (second compound 3.16 µM, first compound 0.000316 µM) 87%; (second compound 3.16 µM, first compound 0.001 µM) 89.8%; under setting [18], 90.2%; under setting [19], 89%; under setting [20], 91.9%; under setting [21], 77.8%. Moreover, the viability, T/C is 80.8% (second compound 10 µM, first compound 0.000316 µM); 86.6% (second compound 10 µM, first compound 0.001 µM); 91.3% under setting [22]; 87.3% under setting [23]; 78.6% under setting [24]; 78.4% under setting [25].
As for `CCc1c2c(nc3ccc(O)cc13)-c1cc3c(c(=O)n1C2)COC(=O)[C@]3(O)CC` + NC1CC1c1ccc(-c2cccc(O)c2)cc1, the pIC50 by setting is: under setting [1], > 9.02; under setting [2], > 9.02; under setting [3], > 9.02; under setting [4], > 9.02; under setting [5], > 9.02. Further, the viability, T/C (second compound 0.1 µM, first compound 0.000949 µM) was 39.9%; the viability, T/C (second compound 0.1 µM, first compound 0.003 µM) was 34.3%; the viability, T/C (second compound 0.1 µM, first compound 0.00949 µM) is 23.6%; the viability, T/C (second compound 0.1 µM, first compound 0.03 µM) was 0.69%; the viability, T/C (second compound 0.1 µM, first compound 0.0949 µM) is 0.04%; the viability, T/C (second compound 0.1 µM, first compound 0.3 µM) was 0.13%. Also, the viability, T/C is, setting by setting: (second compound 0.316 µM, first compound 0.000949 µM) 37.5%; (second compound 0.316 µM, first compound 0.003 µM) 36.1%; (second compound 0.316 µM, first compound 0.00949 µM) 25.2%; (second compound 0.316 µM, first compound 0.03 µM) 1.05%; (second compound 0.316 µM, first compound 0.0949 µM) 0.04%; (second compound 0.316 µM, first compound 0.3 µM) 0.13%. Besides, the viability, T/C was 42.8% (second compound 1 µM, first compound 0.000949 µM); 31.7% (second compound 1 µM, first compound 0.003 µM); 23.8% (second compound 1 µM, first compound 0.00949 µM); 0.94% (second compound 1 µM, first compound 0.03 µM); 0.05% (second compound 1 µM, first compound 0.0949 µM); 0.13% (second compound 1 µM, first compound 0.3 µM). Moreover, the viability, T/C is, setting by setting: (second compound 3.16 µM, first compound 0.000949 µM) 43%; (second compound 3.16 µM, first compound 0.003 µM) 32%; (second compound 3.16 µM, first compound 0.00949 µM) 24.8%; (second compound 3.16 µM, first compound 0.03 µM) 1.16%; (second compound 3.16 µM, first compound 0.0949 µM) 0.06%; (second compound 3.16 µM, first compound 0.3 µM) 0.51%. Also, the viability, T/C is 41% (second compound 10 µM, first compound 0.000949 µM); 30.1% (second compound 10 µM, first compound 0.003 µM); 23.3% (second compound 10 µM, first compound 0.00949 µM); 0.83% (second compound 10 µM, first compound 0.03 µM); 0.14% (second compound 10 µM, first compound 0.0949 µM); 0.99% (second compound 10 µM, first compound 0.3 µM).
`O=C(C=Cn1cnc(-c2cc(C(F)(F)F)cc(C(F)(F)F)c2)n1)NNc1cnccn1`: the viability, T/C by setting is: (compound 0.00316 µM) 71.3% and 66.5%; (compound 0.01 µM) 42.9% and 36.6%; (compound 0.0316 µM) 32.5% and 31.3%; (compound 0.1 µM) 29.1% and 26.8%; (compound 0.316 µM) 25.6% and 26.2%; (compound 1 µM) 22.2% and 17.3%. Moreover, the pIC50 (curve of compound) is 8.11 and 8.20.
As for `CCN(c1cc(-c2ccc(CN3CCOCC3)cc2)cc(C(=O)NCc2c(C)cc(C)[nH]c2=O)c1C)C1CCOCC1`, the viability, T/C runs as follows: (compound 0.00949 µM) 98.7% and 101%; (compound 0.03 µM) 108% and 107%; (compound 0.0949 µM) 98.7% and 102%; (compound 0.3 µM) 103%; (compound 0.949 µM) 107% and 105%; (compound 3 µM) 112% and 113%. The pIC50 (curve of compound) was < 5.52.
On to `O=C(c1cc(Cc2n[nH]c(=O)c3ccccc23)ccc1F)N1CCN(C(=O)C2CC2)CC1`, for which the viability, T/C was 99% and 102% (compound 0.0316 µM); 108% and 105% (compound 0.1 µM); 96% and 101% (compound 0.316 µM); 102% and 101% (compound 1 µM); 103% and 93.4% (compound 3.16 µM); 88.9% and 84.9% (compound 10 µM). Also, where the note is “curve of compound”, the pIC50 was < 5.00.

The values are drawn from PubChem BioAssay AID1918947 (Molecular Pharmacology Branch, DTP, NCI, 2023).
